From patent publication US7112698B2, “4-(c2-6alkoxy)-substituted chalcones as therapeutic agents” (Spear Therapeutics Limited, priority 2001, dated 2006)
Like-named read-outs stand apart in the source and are kept apart here.

How the values were obtained:
[1] = test system: MCF-7 cells; assay: MCF-7 cell line (non-induced) cytotoxicity assay, MTT; type: cell-based; conditions: Homo sapiens, MCF7
Description: (§1) CYP1A1 and CYP1B1 enzyme activity is induced by TCDD (tetrachlorodibenzodioxin (Dioxin)) in breast tumour MCF-7 cells (see, e.g., Sutter et al., 1994). CYP1B1 is expressed in a variety of human tumours, and can be inducible by TCDD in numerous cell types including breast, liver, lung, and kidney (see, e.g., Murray et al., 1997). CYP1B1 is known to catalyse estradiol 4-hydroxylation metabolism. In untreated culture, the constitutive rate of estradiol E2 metabolism in MCF-7 cells is minimal. However, treatment with TCDD causes a marked increase in the rate of E2 metabolism (see, e.g., Spink et al., 1994). […] Therefore the cytotoxicity of compounds in non-induced MCF-7 cells correlates to the cytotoxicity of compounds against normal cells, whilst the cytotoxicity of compounds against TCDD-induced MCF-7 cells correlates to the cytotoxicity of compounds against real tumours that express CYP1B1.
(§2) The cytotoxicity of compounds in non-induced MCF-7 cells correlates to the cytotoxicity of compounds against normal cells, whilst the cytotoxicity of compounds against TCDD-induced MCF-7 cells correlates to the cytotoxicity of compounds against real tumours that express CYP1B1.
(§3) Cells were maintained in RPMI 1640 with Glutamax 1 (Life Technologies) with 10% (v/v) heat inactivated foetal calf serum (Hybrimax. Sigma), at 37° C., 5% CO2/95% air with 100% humidity and passaged using trypsin/EDTA. 1×10^3 cells were plated out in 100 μl medium per well of 96-well flat-bottomed plates (Fisher). After 4 hours to allow adherance, 100 μl of medium containing TCDD (British Greyhound Chromatography; 10 μM stock in DMSO (dimethylsulfoxide)) or medium with 0.2% (v/v) DMSO as control was added to each well to give a final concentration of 10 nM TCDD, 0.1% (v/v) DMSO, for 24 hours to allow maximal CYP expression. The medium was then carefully aspirated and 100 μl fresh medium added. Within 30 minutes test compound was added in quadruplicate in 100 μl medium (with or without inhibitors) at double the final concentration from 100 mM stock in DMSO to give a final concentration of not more than 0.1% (v/v) DMSO, or DMSO solvent alone at 0.1% (v/v) as control. The cells were then allowed to grow on for 96 hours to give 80–90% confluence in the control wells. 50 μl MTT (Thiazol blue, Sigma) at 2 mg/ml in Dulbecco's phosphate buffered saline-A, was then added to each well for 3 hours. All medium was aspirated, then the formazan product generated by viable cells was solubilized with 150 μl DMSO. Plates were vortexed and the absorbance at 540 nm determined using a plate reader. Results were expressed as the percentage of 100% (control) proliferation and the IC50 calculated using the line of best fit for a sigmoidal dose response curve with variable slope using Graphpad Prizm software. All determinations were carried out in at least triplicate.

[2] = test system: TCDD-induced MCF-7 cells; assay: TCDD-induced MCF-7 cell line cytotoxicity assay, MTT; type: cell-based, human; conditions: for IC50: Homo sapiens, MCF7, MCF-7 cells induced with 10 nM TCDD for 24 hours, 96 hours, MTT; for Tumour Selectivity Differential Factor: MCF-7 IC50 versus TCDD-induced MCF-7 IC50 (Table 1); for more toxic to “tumour” cells than to “normal” cells: TCDD-induced MCF-7 versus MCF-7
Description: as §1, §2
as §3, with “triplicate. […]” for “triplicate.”

[3] = test system: MDA-468 advanced breast cancer cell line; assay: MDA-468 tumour cell line cytotoxicity assay; type: cell-based, human; conditions: for IC50: Homo sapiens, without TCDD; for Tumour Selectivity Differential Factor: IC50 MCF-10A divided by IC50 MDA-468 (Table 2)
Protocol: (§4) Cells were maintained in RPMI 1640 with Glutamax 1 (Life Technologies) with 10% (v/v) heat inactivated foetal calf serum (Hybrimax. Sigma), at 37° C., 5% CO2/95% air with 100% humidity and passaged using trypsin/EDTA. 1×10^3 cells were plated out in 100 μl medium per well of 96-well flat-bottomed plates (Fisher). […] The medium was then carefully aspirated and 100 μl fresh medium added. […] 50 μl MTT (Thiazol blue, Sigma) at 2 mg/ml in Dulbecco's phosphate buffered saline-A, was then added to each well for 3 hours. All medium was aspirated, then the formazan product generated by viable cells was solubilized with 150 μl DMSO. Plates were vortexed and the absorbance at 540 nm determined using a plate reader. […] All determinations were carried out in at least triplicate.
(§5) This cell culture based assay is performed using the two cell lines MDA-468 and MCF-10A. The MDA468 cell line is an advanced breast cancer cell line, whilst the MCF-10A cell line is a normal breast cell line.
(§6) This assay was performed using the two cell lines MDA-468 and MCF-10A according to the procedure described above for the MCF-7 assay, but without the addition of TCDD.
(§7) The tumour selectivity differential factor (TSDF) is calculated by dividing the IC50 obtained from the MCF-10A data by the IC50 obtained from the MDA-468 data.

[4] = test system: MCF-10A normal breast cell line; assay: MCF-10A normal cell line cytotoxicity assay; type: cell-based; conditions: Homo sapiens, without TCDD
Protocol: as §4, §5, §6, §7

[5] = non-induced MCF-7 cells, 96 hours, MTT, read-out: MCF-7 Cells IC50
[6] = prodrug / hydroxylated metabolite illustration, read-out: IC50 in breast cancer MCF-7 cells

SMILES	IC50 [1, 5] [µM]	IC50 [2] [µM]	Tumour Selectivity Differential Factor [2]	also measured
CCCOc1ccc(/C=C(\C)C(=O)c2cc(OC)cc(OC)c2)cc1 [DMU-432, (E)-1-(4-propoxyphenyl)-2-methyl-3-(3,5-dimethoxyphenyl)prop-1-en-3-one]	0.7	0.08	9	–
CCCOc1ccc(/C=C/C(=O)c2cc(OC)c(OC)c(OC)c2)cc1 [DMU-191, (E)-1-(4-propoxyphenyl)-3-(3,4,5-trimethoxyphenyl)prop-1-en-3-one]	10	0.42	24	more toxic to “tumour” cells than to “normal” cells [2]: 24 fold
CCCOc1ccc(/C=C/C(=O)c2ccc(OC)c(OC)c2OC)cc1 [DMU-420, (E)-1-(4-propoxyphenyl)-3-(2,3,4-trimethoxyphenyl)prop-1-en-3-one]	20	3.7	5	–
COc1cc(OC)cc(C(=O)/C=C/c2ccc(OC)c(O)c2)c1 [(E)-1-(3-Hydroxy-4-methoxyphenyl)-3-(3,5-dimethoxyphenyl)prop-1-en-3-one, reference compound]	–	–	–	IC50 [1, 6]: 0.00065 µM
CCCCOc1ccc(/C=C/C(=O)c2cc(OC)c(OC)c(OC)c2)cc1 [DMU-192, (E)-1-(4-butoxyphenyl)-3-(3,4,5-trimethoxyphenyl)prop-1-en-3-one]	20	1.6	12	–
CCCCOc1ccc(/C=C/C(=O)c2cc(OC)cc(OC)c2)cc1 [DMU-176, (E)-1-(4-butoxyphenyl)-3-(3,5-dimethoxyphenyl)prop-1-en-3-one]	20	1.1	18	–
CN(Cc1cnc2nc(N)nc(N)c2n1)c1ccc(C(=O)N[C@@H](CCC(=O)O)C(=O)O)cc1 [Methotrexate, methotrexate]	–	–	–	IC50 [3]: 0.04 µM; Tumour Selectivity Differential Factor [3]: 1.5; IC50 [4]: 0.06 µM
CCCOc1ccc(/C=C/C(=O)c2cc(OC)c(OC)c(OC)c2)cc1O [DMU-188, (E)-1-(3-hydroxy4-propoxyphenyl)-3-(3,4,5-trimethoxyphenyl)prop-1-en-3-one]	4.5	0.6	8	–
CCCOc1ccc(/C=C/C(=O)c2cccc(OC)c2)cc1 [DMU-417, (E)-1-(4-propoxyphenyl)-3-(3-methoxyphenyl)prop-1-en-3-one]	28	10	3	–
CCCOc1ccc(/C=C/C(=O)c2cc(OC)cc(OC)c2)cc1O [DMU-185, (E)-1-(3-hydroxy-4-propoxyphenyl)-3-(3,5-dimethoxyphenyl)prop-1-en-3-one]	8	0.66	12	–
CCCOc1ccc(/C=C/C(=O)c2ccc(OC)cc2OC)cc1 [DMU-408, (E)-1-(4-propoxyphenyl)-3-(2,4-dimethoxyphenyl)prop-1-en-3-one]	10	1.3	8	–
COc1cc(OC)cc(C(=O)/C=C/c2ccc(OC(C)C)cc2)c1 [DMU-401, (E)-1-(4-isopropoxyphenyl)-3-(3,5-dimethoxyphenyl)prop-1-en-3-one]	6.8	0.8	9	–
COc1ccc(/C=C/C(=O)c2cc(OC)cc(OC)c2)cc1 [(E)-1-(4-methoxyphenyl)-3-(3,5-dimethoxyphenyl)prop-1-en-3-one, reference compound]	–	–	–	IC50 [1, 6]: 0.69 µM
COc1cccc2c1C(=O)c1c(O)c3c(c(O)c1C2=O)C[C@@](O)(C(=O)CO)C[C@@H]3O[C@H]1C[C@H](N)[C@H](O)[C@H](C)O1 [Doxorubicin, doxorubicin]	–	–	–	IC50 [3]: 0.003 µM; Tumour Selectivity Differential Factor [3]: 0.1; more toxic to normal cells than to cancer cells ([3]; MCF-10A versus MDA-468): 10 fold; IC50 [4]: 0.0003 µM
CCOc1ccc(/C=C/C(=O)c2cc(OC)cc(OC)c2)cc1 [DMU-174, (E)-1-(4-ethoxyphenyl)-3-(3,5-dimethoxyphenyl)prop-1-en-3-one]	2	0.6	3	–
COc1cc(OC)cc(C(=O)/C=C/c2ccc(OC(C)(C)C)cc2)c1 [DMU-402, (E)-1-(4-tertbutoxyphenyl)-3-(3,5-dimethoxyphenyl)prop-1-en-3-one, reference compound]	6.2	6.2	1	–
CCCCOc1ccc(/C=C/C(=O)c2cc(OC)cc(OC)c2)cc1O [DMU-186, (E)-1-(3-hydroxy-4-butoxyphenyl)-3-(3,5-dimethoxyphenyl)prop-1-en-3-one]	30	0.65	46	more toxic to “tumour” cells than to “normal” cells [2]: 46 fold
CCCOc1ccc(/C=C/C(=O)c2cc(OC)ccc2OC)cc1 [DMU-424, (E)-1-(4-propoxyphenyl)-3-(2,5-dimethoxyphenyl)prop-1-en-3-one]	12	2	6	–
CCCCOc1ccc(/C=C/C(=O)c2cc(OC)c(OC)c(OC)c2)cc1O [DMU-189, (E)-1-(3-hydroxy-4-butoxyphenyl)-3-(3,4,5-trimethoxyphenyl)prop-1-en-3-one]	8.3	2.5	3	–
CCOc1ccc(/C=C/C(=O)c2cc(OC)c(OC)c(OC)c2)cc1 [DMU-190, (E)-1-(4-ethoxyphenyl)-3-(3,4,5-trimethoxyphenyl)prop-1-en-3-one]	0.75	0.39	2	–
